{
  "source": "patent US8912121B2",
  "about": "“Herbicidal compositions comprising 4-amino-3-chloro-5-fluoro-6-(4-chloro-2-fluoro-3-methoxyphenyl)pyridine-2-carboxylic acid or a derivative thereof and certain PS II inhibitors” (Dow Agrosciences LLC, priority 2012, dated 2014)",
  "key": {"[1]": {"system": "BRAPP (Brachiaria platyphylla, broadleaf signalgrass)", "assay": "Postemergence foliar-applied mixtures, direct seeded rice, greenhouse", "assay_type": "in vivo, Brachiaria platyphylla (Griseb.) Nash", "from_the_text": "(§1) Seeds or nutlets of the desired test plant species were planted in a soil matrix prepared by mixing a loam or sandy loam soil (e.g., 28.6 percent silt, 18.8 percent clay, and 52.6 percent sand, with a pH of about 5.8 and an organic matter content of about 1.8 percent) and calcareous grit in an 80 to 20 ratio. The soil matrix was contained in plastic pots with a volume of 1 quart and a surface area of 83.6 square centimeters (cm^2). When required to ensure good germination and healthy plants, a fungicide treatment and/or other chemical or physical treatment was applied. The plants were grown for 8-22 days in a greenhouse with an approximate 14 h photoperiod which was maintained at about 29° C. during the day and 26° C. during the night. Nutrients (Peters Excel® 15-5-15 5-Ca 2-Mg and iron chelate) were applied in the irrigation solution as needed and water was added on a regular basis. Supplemental lighting was provided with overhead metal halide 1000-Watt lamps as necessary. The plants were employed for testing when they reached the first through fourth true leaf stage.\n(§2) Treatments consisted of the acid or esters of 4-amino-3-chloro-5-fluoro-6-(4-chloro-2-fluoro-3-methoxy-phenyl) pyridine-2-carboxylic acid (Compound A), each formulated as an SC (suspension concentrate), and various herbicidal components alone and in combination. Forms of compound A were applied on an acid equivalent basis.\n(§3) Other herbicidal components were applied on an active ingredient basis and included Photosystem II (PSII)-inhibiting herbicides propanil formulated as Stam® M4 EC, bentazon-sodium formulated as Basagran®, atrazine formulated as Atrazine 90 WDG, bromoxynil octanoate ester formulated as Buctril®, simetryne (technical grade material), simazine formulated as Princep® Caliber 90, ioxynil (technical grade material), cyanazine (technical grade material), and hexazinone (technical grade material).\n(§4) Treatment requirements were calculated based upon the rates being tested, the concentration of active ingredient or acid equivalent in the formulation, and a 12 mL application volume at a rate of 187 L/ha.\n(§5) For treatments comprised of formulated compounds, measured amounts of compounds were placed individually in 25 mL glass vials and diluted in a volume of 1.25% (v/v) Agri-Dex® crop oil concentrated to obtain 12× stock solutions. […] Application solutions were prepared by adding an appropriate amount of each stock solution (e.g., 1 mL) and diluted to the appropriate final concentrations with the addition of 10 mL of an aqueous mixture of 1.25% (v/v) crop oil concentrate so that the final spray solutions contained 1.25+/−0.05% (v/v) crop oil concentrate.\n(§6) For treatments comprised of technical compounds, weighed amounts can be placed individually in 25 mL glass vials and dissolved in a volume of 97:3 v/v acetone/DMSO to obtain 12× stock solutions. […] Application solutions can be prepared by adding an appropriate amount of each stock solution (e.g., 1 mL) and diluted to the appropriate final concentrations with the addition of 10 mL of an aqueous mixture of 1.5% (v/v) crop oil concentrate so that the final spray solutions contain 1.25% (v/v) crop oil concentrate. When technical materials are used, the concentrated stock solutions can be added to the spray solutions so that the final acetone and DMSO concentrations of the application solutions are 16.2% and 0.5%, respectively.\n(§7) For treatments comprised of formulated and technical compounds, weighed amounts of the technical materials were placed individually in 25 mL glass vials and dissolved in a volume of 97:3 v/v acetone/DMSO to obtain 12× stock solutions, and measured amounts of the formulated compounds were placed individually in 25 mL glass vials and diluted in a volume of 1.5% (v/v) crop oil concentrate or water to obtain 12× stock solutions. […]"}, "[2]": {"system": "CYPIR (Cyperus iria, rice flatsedge)", "assay": "Postemergence foliar-applied mixtures, direct seeded rice, greenhouse", "assay_type": "in vivo, Cyperus iria L.", "from_the_text": "as §1, §2, §3, §4, §5, §6, §7"}},
  "data": [
    {"smiles": "CCNc1nc(Cl)nc(NC(C)C)n1", "note": "[Atrazine, 6-chloro-N-ethyl-N′-(1-methylethyl)-1,3,5-triazine-2,4-diamine, reference compound]", "values": [
      {"measurement": "Visual Weed Control (%) Obs", "setting": "[1]; 280 g ai/ha, 22 DAA", "value": 0, "unit": "%"},
      {"measurement": "Visual Weed Control (%) Obs", "setting": "[1]; 560 g ai/ha, 22 DAA", "value": 0, "unit": "%"},
      {"measurement": "Visual Weed Control (%) Obs", "setting": "[2]; 280 g ai/ha, 22 DAA", "value": 0, "unit": "%"},
      {"measurement": "Visual Weed Control (%) Obs", "setting": "[2]; 560 g ai/ha, 22 DAA", "value": 100, "unit": "%"},
      {"measurement": "Visual Weed Control (%) Obs", "setting": "[2]; 1120 g ai/ha, 22 DAA", "value": 80, "unit": "%"}
    ]},
    {"smiles": "COc1c(Cl)ccc(-c2nc(C(=O)O)c(Cl)c(N)c2F)c1F", "note": "[Compound A Acid, 4-amino-3-chloro-6-(4-chloro-2-fluoro-3-methoxyphenyl)-5-fluoropyridine-2-carboxylic acid]", "values": [
      {"measurement": "Visual Weed Control (%) Obs", "setting": "[1]; 4.38 g ae/ha, 22 DAA", "value": 45, "unit": "%"},
      {"measurement": "Visual Weed Control (%) Obs", "setting": "[1]; 8.75 g ae/ha, 22 DAA", "value": 70, "unit": "%"},
      {"measurement": "Visual Weed Control (%) Obs", "setting": "[2]; 4.38 g ae/ha, 22 DAA", "value": 15, "unit": "%"}
    ]},
    {"smiles": "COc1c(Cl)ccc(-c2nc(C(=O)OCc3ccccc3)c(Cl)c(N)c2F)c1F", "note": "[Compound A Benzyl Ester, benzyl ester of 4-amino-3-chloro-5-fluoro-6-(4-chloro-2-fluoro-3-methoxy-phenyl)pyridine-2-carboxylic acid]", "values": [
      {"measurement": "Visual Weed Control (%) Obs", "setting": "[1]; 4.38 g ae/ha, 22 DAA", "value": 55, "unit": "%"},
      {"measurement": "Visual Weed Control (%) Obs", "setting": "[1]; 8 g ae/ha, 20 DAA", "value": 55, "unit": "%"},
      {"measurement": "Visual Weed Control (%) Obs", "setting": "[1]; 8.75 g ae/ha, 22 DAA", "value": 70, "unit": "%"},
      {"measurement": "Visual Weed Control (%) Obs", "setting": "[1]; 16 g ae/ha, 20 DAA", "value": 90, "unit": "%"},
      {"measurement": "Visual Weed Control (%) Obs", "setting": "[1]; 17.5 g ae/ha, 22 DAA", "value": 75, "unit": "%"},
      {"measurement": "Visual Weed Control (%) Obs", "setting": "[1]; 32 g ae/ha, 20 DAA", "value": 90, "unit": "%"},
      {"measurement": "Visual Weed Control (%) Obs", "setting": "[2]; 8 g ae/ha, 20 DAA", "value": 70, "unit": "%"},
      {"measurement": "Visual Weed Control (%) Obs", "setting": "[2]; 8 g ae/ha, 22 DAA", "value": 10, "unit": "%"},
      {"measurement": "Visual Weed Control (%) Obs", "setting": "[2]; 16 g ae/ha, 20 DAA", "value": 90, "unit": "%"},
      {"measurement": "Visual Weed Control (%) Obs", "setting": "[2]; 16 g ae/ha, 22 DAA", "value": 60, "unit": "%"},
      {"measurement": "Visual Weed Control (%) Obs", "setting": "[2]; 32 g ae/ha, 20 DAA", "value": 90, "unit": "%"}
    ]},
    {"smiles": "CCNc1nc(Cl)nc(NCC)n1", "note": "[Simazine, 6-chloro-N,N′-diethyl-1,3,5-triazine-2,4-diamine, reference compound]", "values": [
      {"measurement": "Visual Weed Control (%) Obs", "setting": "[1]; 560 g ai/ha, 20 DAA", "value": 0, "unit": "%"},
      {"measurement": "Visual Weed Control (%) Obs", "setting": "[1]; 1120 g ai/ha, 20 DAA", "value": 0, "unit": "%"},
      {"measurement": "Visual Weed Control (%) Obs", "setting": "[1]; 2240 g ai/ha, 20 DAA", "value": 0, "unit": "%"},
      {"measurement": "Visual Weed Control (%) Obs", "setting": "[2]; 560 g ai/ha, 20 DAA", "value": 0, "unit": "%"},
      {"measurement": "Visual Weed Control (%) Obs", "setting": "[2]; 1120 g ai/ha, 20 DAA", "value": 0, "unit": "%"},
      {"measurement": "Visual Weed Control (%) Obs", "setting": "[2]; 2240 g ai/ha, 20 DAA", "value": 30, "unit": "%"}
    ]}
  ]
}
